From US20010053796A1, “Delta-aminolevulinic acid for prevention and treatment of infection microorganisms and parasite” (priority 2000, published 2001)

What was measured:
Edwardsiella tarda [1] = test: Proliferation inhibition of pathogenic bacteria in BHI broth (620 nm); assay type: cell-based; conditions: product on the market (Sigma)
Method: (§1) Pathogenic index bacteria used in this experiment are Edwardsiella tard, Streptococcus sp., Staphylococcus sp., Staphylococcus epidermidis, Pseudomonas sp., Vibrio anguillarum which are collected from the marine fish farm nearby Yeosu. In solid culture, they were cultured in TSA (tryptic soy agar) supplemented with 0.2% NaCl flat media and in liquid culture, they were prepared by culturing in BHI broth for 24 hrs and setting the O.D. value as 1.0. δ-aminolevulinic acid used in this experiment were one on the market (Sigma) and one formulated by inventors of the present invention (Korean patent application No. 1998-41898). Each 0.167 g δ-aminolevulinic acid were dissolved in 1.0 mL sterilized distilled water was used as undiluted solution. 1.0 M δ-aminolevulinic acid was 2-fold diluted with BHI broth by stages up to 64-fold and prepared for test solution to examine pathogenic bacteria proliferation-prohibiting effect. […] In control group, instead of δ-aminolevulinic acid, BHI broth bacteria suspension were mixed with (1:1) and then observed with the same method above. MIC assay by δ-aminolevulinic acid for major pathogenic bacteria of marine cultivating fishes, Edwardsiella tard, Streptococcus sp., Staphylococcus sp., Staphylococcus epidermidis, Pseudomonas sp., Vibrio anguillarum was carried out by flat drug disc method. 100 μL of each bacteria in a culture solution was mixed with fixed amount of top agar and coated to TSA agar. 1.0 M δ-aminolevulinic acid solution was diluted by 2 folds in PBS and 10 μL of each dilution were absorbed to sterilized disc. After incubation at 23˜25° C. for 2˜3 days, antibacterial effect was indicated by measuring the size (mm) of clear zone. In control group, PBS was absorbed into disc instead of δ-aminolevulinic acid dilution solution with the same amount and observed. From the result of this experiment using δ-aminolevulinic acid on the market, proliferation-inhibiting effects of pathogenic bacteria according to δ-aminolevulinic acid concentration are shown in Table 2a (Edwardsiella tard) and Table 2b (Streptococcus sp.). Below 1/32 fold (31 mM) of δ-aminolevulinic acid dilution rate, proliferation of both bacteria was inhibited. […] The experimental result of δ-aminolevulinic acid prepared by the inventors has shown in Table 3 and no difference in effects from δ-aminolevulinic acid on the market.

Streptococcus sp. [2] = test: as above; assay type: cell-based; conditions: product on the market (Sigma)
Method: as §1

Edwardsiella tarda [3] = test: Treatment effect of infected fry by oral administration in feed; assay type: in vivo, Bastardhalibut; conditions: 50 fish
Method: (§2) In this example, fry of Bastardhalibut and Sebastes schlegeli (mean body weight 2 g), 50 per each breeding tank, were preliminary-bred for 1 week and stabilized. […] The artificial infection methods were carried out through the digestion method. Pathogenic organisms were applied into fish tanks and introduced into seawater for an hour, wherein the concentration of organisms adjusted to 10^4 CFU/mL. Treatment conditions are as follows; after artificial infection, infected fish were moved to fish tanks and kept in the infection period for 3 days. […] The fish were bred for 2 weeks after exchanging with clean seawater and the mortality of fish according to infection was monitored. In the control groups, after each bacteria were identically infected through digestion method, mortality of Bastardhalibut and Sebastes schlegeli according to bacteria infection was identified while breeding with marketing assorted feed without δ-aminolevulinic acid. As a result of this experiment, δ-aminolevulinic acid-treated groups have shown high viability in both Bastardhalibut (Table 20˜Table 23) and Sebastes schlegeli (Table 24˜Table 27).

Pseudomonas sp. = test: as above; assay type: in vivo, Bastardhalibut; conditions: 50 fish
Method: as §2

Staphylococcus epidermis = test: as above; assay type: in vivo, Bastardhalibut; conditions: 50 fish
Method: as §2

Streptococcus sp. [4] = test: as above; assay type: in vivo, Bastardhalibut; conditions: 50 fish
Method: as §2

Vibrio anguillarum = test: as above; assay type: in vivo, Bastardhalibut; conditions: 50 fish
[5] = system: White Spot Syndrome Virus (WSSV); test: Treatment for WSSV infected shrimp; assay type: in vivo, Penaeus Chinesis
Method: In this experiment, after injection of the viral homogenate aforementioned in EXPERIMENT 1, treatment group was immersed respectively in 0.01˜10 ppm of ALA for 1.5 hour for 3 days.

Birnavirus = test: Treatment effect on eel disease of Birnavirus (field); assay type: in vivo; conditions: 0.1˜10 ppm added to the farm; after 3 weeks administration
Method: In the example, the experiment was carried out in the field at the Eel Aguacultural Farm, Gochang and Kunsan, in Chunbuk, Korea. Eels were dead by infection of Birnavirus, which was easely confirmed by microscopical or electron microscopical observation.
ALA, at the concentration range of 0.1˜10 ppm was added to the farm for 3 months. After 3 weeks administration, motality was decreased to less than 10% (1˜2kg).

[6] = system: FHM (Fathead Minnow Epithelioma); conditions: 24 h
Method: δ-aminolevulinic acid feed were prepared to 1.0 M concentration (0. 167 g/mL HBSS) and diluted by 10-fold dilution method. 100 μl of each fish cell line suspension of 2.5×10^5 were placed into 96-well microplate and then, 100 μl of each of the resulting diluted solution, 4 well/dilution unit, were added respectively. Fish cell lines, which were used for this cell toxicity experiment of δ-aminolevulinic acid, were RTG-2 (Rainbow Trout Gonad), FHM (Fathead Minnow Epithelioma) and CHSE (Chinook Salmon Embryo) lotted out from Dr. M. Yoshimizu of the Department of Fisheries, Hokkaido University, Japan. For these experimental cells, 100 U/mL penicillin (Sigma), 100 μl/mL streptomycin (Sigma) and MEM media supplemented with 5% fetal bovine serum (FBS, Gibco) for cell culture were used. Cultured cells in 96-well microplate was incubated for 3 hrs at 15° C. and δ-aminolevulinic acid were added to wells at amounts of 100 μl of 0, 1.0, 10, 50 and 100 mM and incubated for 24 hrs at 18° C. As a control group, instead of δ-aminolevulinic acid, HBSS was added at the same amount. […] Absorbance was measured with an ELISA reader at 570 μl.

Bastardhalibut = test: Breeding before Scutica artificial infection (mortality during cultivation); conditions: oral (100 ppm per feed 1 kg), 1˜3 weeks
Excerpt: 20 flatfish of about 25 g were set into 2 groups and 1 control group and cultivated in circulatory filtering system. In group 1, they were cultivated for 1˜3 weeks, maintaining the concentration of δ-aminolevulinic acid at 0.01˜50 ppm by administering δ-aminolevulinic acid once every 3 days to the cultivating water. In group 2, they were cultivated for 1˜3 weeks by administering δ-aminolevulinic acid solution, which was nebulized at the concentration of 0.1˜100 ppm and for artificial assorted feed (EP, fish body weight 3%: 15 g) 1 kg, and dried. In group 1 and the non-treated group, artificial assorted feed on the market with the same amount of feed of group 2 was used without δ-aminolevulinic acid treatment. […] The water temperature was maintained at 20° C. (±2° C.) throughout the experiment.

[7] = above 1/64 fold (16 mM) dilution rate
[8] = below 1/32 fold (31 mM) dilution rate, 24 hrs, 25° C.
[9] = feed 0.1 ppm from 4th day of infection
[10] = feed 1.0 ppm from 4th day of infection
[11] = feed 50 ppm from 4th day of infection
[12] = feed 100 ppm from 4th day of infection

NCC(=O)CCC(=O)O [δ-aminolevulinic acid]
proliferation of bacteria (Edwardsiella tarda [1]; [7]): no significant difference from the control group | proliferation of bacteria (Edwardsiella tarda [1]; [8]): inhibited | proliferation of bacteria (Streptococcus sp. [2]; [7]): no significant difference from the control group | proliferation of bacteria (Streptococcus sp. [2]; [8]): inhibited | Viability (Edwardsiella tarda [3]; [9]): 42% | Viability (Edwardsiella tarda [3]; [10]): 68% | Viability (Edwardsiella tarda [3]; [11]): 92% | Viability (Edwardsiella tarda [3]; [12]): 82% | Viability (Pseudomonas sp.; [9]): 42% | Viability (Pseudomonas sp.; [10]): 68% | Viability (Pseudomonas sp.; [11]): 88% | Viability (Pseudomonas sp.; [12]): 82% | Viability (Staphylococcus epidermis; [9]): 42% | Viability (Staphylococcus epidermis; [10]): 68% | Viability (Staphylococcus epidermis; [11]): 94% | Viability (Staphylococcus epidermis; [12]): 86% | Viability (Streptococcus sp. [4]; [9]): 36% | Viability (Streptococcus sp. [4]; [10]): 74% | Viability (Streptococcus sp. [4]; [11]): 90% | Viability (Streptococcus sp. [4]; [12]): 86% | Viability (Vibrio anguillarum; [9]): 44% | Viability (Vibrio anguillarum; [10]): 72% | Viability (Vibrio anguillarum; [11]): 90% | Viability (Vibrio anguillarum; [12]): 88% | Cumulative mortality ([5]; 0.01 ppm, after injection for 3 weeks): 100% | Mortality after injection for 3 weeks ([5]; 0.01 ppm, day 1, 50 shrimp): 0 | Mortality after injection for 3 weeks ([5]; 0.01 ppm, day 2, 50 shrimp): 0 | Mortality after injection for 3 weeks ([5]; 0.01 ppm, day 3, 50 shrimp): 15 | Mortality after injection for 3 weeks ([5]; 0.01 ppm, day 4, 50 shrimp): 20 | Mortality after injection for 3 weeks ([5]; 0.01 ppm, day 5, 50 shrimp): 12 | Mortality after injection for 3 weeks ([5]; 0.01 ppm, day 6, 50 shrimp): 3 | Cumulative mortality ([5]; 0.1 ppm, after injection for 3 weeks): 18% | Mortality after injection for 3 weeks ([5]; 0.1 ppm, day 1, 50 shrimp): 0 | Mortality after injection for 3 weeks ([5]; 0.1 ppm, day 2, 50 shrimp): 0 | Mortality after injection for 3 weeks ([5]; 0.1 ppm, day 3, 50 shrimp): 4 | Mortality after injection for 3 weeks ([5]; 0.1 ppm, day 4, 50 shrimp): 3 | Mortality after injection for 3 weeks ([5]; 0.1 ppm, day 5, 50 shrimp): 2 | Mortality after injection for 3 weeks ([5]; 0.1 ppm, day 6, 50 shrimp): 0 | Mortality after injection for 3 weeks ([5]; 0.1 ppm, day 7, 50 shrimp): 0 | Mortality after injection for 3 weeks ([5]; 0.1 ppm, day 21, 50 shrimp): 0 | Cumulative mortality ([5]; 1.0 ppm, after injection for 3 weeks): 10% | Mortality after injection for 3 weeks ([5]; 1.0 ppm, day 1, 50 shrimp): 0 | Mortality after injection for 3 weeks ([5]; 1.0 ppm, day 2, 50 shrimp): 0 | Mortality after injection for 3 weeks ([5]; 1.0 ppm, day 3, 50 shrimp): 3 | Mortality after injection for 3 weeks ([5]; 1.0 ppm, day 4, 50 shrimp): 2 | Mortality after injection for 3 weeks ([5]; 1.0 ppm, day 5, 50 shrimp): 0 | Mortality after injection for 3 weeks ([5]; 1.0 ppm, day 6, 50 shrimp): 0 | Mortality after injection for 3 weeks ([5]; 1.0 ppm, day 7, 50 shrimp): 0 | Mortality after injection for 3 weeks ([5]; 1.0 ppm, day 21, 50 shrimp): 0 | Cumulative mortality ([5]; 10 ppm, after injection for 3 weeks): 8% | Mortality after injection for 3 weeks ([5]; 10 ppm, day 1, 50 shrimp): 0 | Mortality after injection for 3 weeks ([5]; 10 ppm, day 2, 50 shrimp): 0 | Mortality after injection for 3 weeks ([5]; 10 ppm, day 3, 50 shrimp): 3 | Mortality after injection for 3 weeks ([5]; 10 ppm, day 4, 50 shrimp): 1 | Mortality after injection for 3 weeks ([5]; 10 ppm, day 5, 50 shrimp): 0 | Mortality after injection for 3 weeks ([5]; 10 ppm, day 6, 50 shrimp): 0 | Mortality after injection for 3 weeks ([5]; 10 ppm, day 7, 50 shrimp): 0 | Mortality after injection for 3 weeks ([5]; 10 ppm, day 21, 50 shrimp): 0 | Cumulative mortality ([5]; immersion 1.0 ppm, 1.5 hour for 3 days after virus injection, 3 weeks): 10% | Cumulative mortality ([5]; immersion 10 ppm, 1.5 hour for 3 days after virus injection, 3 weeks): 8% | mortality (Birnavirus): less than 10% | safe range of toxicity [6]: below 10 mM | Viability (Bastardhalibut): 100% | Mortality during Cultivation (Bastardhalibut; dead of 20 fish): 0
